Results published in article PMC8844424, “Optimization, purification and characterization of laccase from Ganoderma leucocontextum along with its phylogenetic relationship” (Scientific Reports, 2022).

Tested on: Glacc110 (purified laccase of G. leucocontextum)
Test: spectrophotometric oxidation assay at […] nm, Lineweaver-Burk plot
Assay type: biochemical, Ganoderma leucocontextum
Conditions: 1-10 mM guaiacol, 100 mM citrate-phosphate buffer, pH 3.0; temperature not stated for kinetics

Km: 1.66 mM
Structure (SMILES): COc1ccccc1O [guaiacol]
